This experiment concerns T1, PtTA.
T1 construct: PLP enzyme
Description: initial rates, chiral HPLC of L-PPT, Michaelis-Menten fit. The conditions noted are these: PPO 1-100 mM; co-substrate L-amino acid 100 mM (L-Glu presumably); 0.1 mM PLP; 50 mM phosphate pH 8.0; 55 °C. It is filed as biochemical, Zestomonas thermotolerans.

Each structure is given as a SMILES string.

As a reminder, the Km is the concentration of substrate that gives half-maximal velocity. On to `CP(=O)(O)CCC(=O)C(=O)O` [PPO, 4-(hydroxy(methyl)phosphoryl)-2-oxobutanoic acid], for which the Michaelis-Menten constant (Km) amounted to 35.9 mM.

These data come from PMC10827958, “Identification of a novel thermostable transaminase and its application in L-phosphinothricin biosynthesis” (Applied Microbiology and Biotechnology, 2024).
